Source: patent publication US7595313B2, “Nitric oxide donating diuretic compounds, compositions and methods of use” (NicOx, S.A., priority 2005, dated 2009)

Legend:
Male Wistar rats = experiment: Determination of the diuresis (urine volume over 6 hours after oral dosing); format: in vivo, rat
Description: Procedures were approved by the Institutional Animal Care and Use Committee of NitroMed, Inc. Male Wistar rats (180-200 g) were purchased from Charles River Laboratories (Kingston, N.Y. or Raleigh, N.C.) and allowed to acclimate in the facility for a period of at least 72 h. Rats were randomly housed 2-3 per cage in a light-controlled room with a 12 hour light/dark cycle and allowed ad libitum access to food and water.
Prior to the experiment, each rat was placed in a metabolic cage and allowed to acclimate for a period of 24-48 hours with food and water ad libitum. During this acclimation period, rats received mash food instead of pellet food to prevent contamination of the urine samples. All rats were fasted for 18 hours prior to experimentation. In addition, water was removed 90 minutes prior to oral dosing with test compound or vehicle.
The test compounds were prepared immediately prior to dosing in 0.5% Methocel (F4M Premium Hydroxypropyl Methylcellulose, lot # PF12012N12; Dow Chemical Company, USA) and homogenized with a glass/Teflon pestle motorized homogenizer. Gently vortexed test compounds were administered intragastrically (p.o.; 30 mg/kg or 3 mg/kg) at a dose volume of 3 ml per rat using an 18 gauge gavage needle. Urine volume (ml) was monitored and urine was collected for subsequent electrolyte analysis over a 6 hours period. […] Data are expressed as mean ±SEM; n=6 or 7.

[1] = p.o. 30 mg/kg in 0.5% Methocel, male Wistar rats, 6 hours, mean ± SEM, n=6 or 7
[2] = p.o. 3 mg/kg in 0.5% Methocel, male Wistar rats, 6 hours, mean ± SEM, n=6 or 7, 3 mg/kg
[3] = p.o. 3 mg/kg in 0.5% Methocel, male Wistar rats, 6 hours, mean ± SEM, n=6 or 7

Row | melting point | SMILES | Urine collected in 6 hours (mL) (3 mg/kg) (Male Wistar rats; [3]) | further results
1 | 222 to 225 °C | NS(=O)(=O)c1cc2c(cc1Cl)N=C(NC(=O)CCCCO[N+](=O)[O-])NS2(=O)=O [Example 4c, Pentanamide, N-[7-(aminosulfonyl)-6-chloro-1,1-dioxido-2H-1,2,4-benzothiadiazin-3-yl]-5-(nitrooxy)-] | – | Urine collected in 6 hours (mL) (30 mg/kg) (Male Wistar rats; [1]): 3.8 ± 0.7 mL
2 | 238 to 240 °C | CC1(C)CC(CC2Nc3cc(Cl)c(S(N)(=O)=O)cc3S(=O)(=O)N2)CC(C)(C)N1O (stereo not shown) [Example 76b, 1-Piperidinyloxy, 4-[[7-(aminosulfonyl)-6-chloro-3,4-dihydro-1,1-dioxido-2H-1,2,4-benzothiadiazin-3-yl]methyl]-2,2,6,6-tetramethyl-] | – | Urine collected in 6 hours (mL) (3 mg/kg) (Male Wistar rats; [2]): 2.2 ± 0.4 mL
3 | 175 to 180 °C | CN(CCO[N+](=O)[O-])CC1Nc2cc(Cl)c(S(N)(=O)=O)cc2S(=O)(=O)N1 (stereo not shown) [Example 45, 2H-1,2,4-Benzothiadiazine-7-sulfonamide, 6-chloro-3,4-dihydro-3-[[methyl[2-(nitrooxy)ethyl]amino]methyl]-, 1,1-dioxide] | 4.8 ± 1.3 mL | –
4 | 226 to 228 °C | NS(=O)(=O)c1cc2c(cc1Cl)NCN(CCO)S2(=O)=O [Example 32b, 2H-1,2,4-Benzothiadiazine-7-sulfonamide, 6-chloro-3,4-dihydro-2-(2-hydroxyethyl)-, 1,1-dioxide] | 5.1 ± 0.2 mL | –
5 | 175 to 178 °C | NS(=O)(=O)c1cc2c(cc1Cl)NC(CCC(=O)NCCOCCO[N+](=O)[O-])=NS2(=O)=O [Example 13, 4H-1,2,4-Benzothiadiazine-3-propanamide, 7-(aminosulfonyl)-6-chloro-N-[2-[2-(nitrooxy)ethoxy]ethyl]-, 1,1-dioxide] | – | Urine collected in 6 hours (mL) (30 mg/kg) (Male Wistar rats; [1]): 2.2 ± 0.5 mL
6 | 160 °C | NS(=O)(=O)c1cc2c(cc1Cl)NCN(CCCO)S2(=O)=O [Example 59, 2H-1,2,4-Benzothiadiazine-7-sulfonamide, 6-chloro-3,4-dihydro-2-(3-hydroxypropyl)-, 1,1-dioxide] | 6.7 ± 0.6 mL | –
7 | 174 to 176 °C | CC1(C)CC(CC2Nc3cc(Cl)c(S(N)(=O)=O)cc3S(=O)(=O)N2)CC(C)(C)N1O (stereo not shown) [Example 77, 2H-1,2,4-Benzothiadiazine-7-sulfonamide, 6-chloro-3,4-dihydro-3-[(1-hydroxy-2,2,6,6-tetramethyl-4-piperidinyl)methyl]-, 1,1-dioxide] | – | Urine collected in 6 hours (mL) (3 mg/kg) (Male Wistar rats; [2]): 2.3 ± 0.4 mL
8 | 160 to 165 °C | CN(CCO[N+](=O)[O-])C(=O)CN1CNc2cc(Cl)c(S(N)(=O)=O)cc2S1(=O)=O [Example 38, 2H-1,2,4-Benzothiadiazine-2-acetamide, 7-(aminosulfonyl)-6-chloro-3,4-dihydro-N-methyl-N-[2-(nitrooxy)ethyl]-, 1,1-dioxide] | 4.5 ± 0.6 mL | –
9 | 235 to 237 °C | Cc1c(CN2CNc3cc(Cl)c(S(N)(=O)=O)cc3S2(=O)=O)no[n+]1[O-] [Example 37c, 2H-1,2,4-Benzothiadiazine-7-sulfonamide, 6-chloro-3,4-dihydro-2-[(4-methyl-5-oxido-1,2,5-oxadiazol-3-yl)methyl]-, 1,1-dioxide] | 2.1 ± 0.6 mL | –
10 | 171 to 189 °C | NS(=O)(=O)c1cc2c(cc1C(F)(F)F)NC(CCCCCO[N+](=O)[O-])NS2(=O)=O (stereo not shown) [Example 2, 2H-1,2,4-Benzothiadiazine-7-sulfonamide, 3,4-dihydro-3-[5-(nitrooxy)pentyl]-6-(trifluoromethyl)-, 1,1-dioxide] | – | Urine collected in 6 hours (mL) (30 mg/kg) (Male Wistar rats; [1]): 5.7 ± 0.7 mL
11 | 161 °C | NS(=O)(=O)c1cc2c(cc1Cl)NC(CCCCCCO[N+](=O)[O-])NS2(=O)=O (stereo not shown) [Example 47c, 2H-1,2,4-Benzothiadiazine-7-sulfonamide, 6-chloro-3,4-dihydro-3-[6-(nitrooxy)hexyl]-, 1,1-dioxide] | 8.3 ± 0.6 mL | –
12 | 139 to 143 °C | NS(=O)(=O)c1cc2c(cc1Cl)NCN(C(CO)CO)S2(=O)=O [Example 78b, 2H-1,2,4-Benzothiadiazine-7-sulfonamide, 6-chloro-3,4-dihydro-2-[2-hydroxy-1-(hydroxymethyl)ethyl]-, 1,1-dioxide] | 2.7 ± 0.8 mL | –
13 | 202 to 211 °C | NS(=O)(=O)c1cc2c(cc1Cl)NC(CCCCO)NS2(=O)=O (stereo not shown) [Example 26, 2H-1,2,4-Benzothiadiazine-7-sulfonamide, 6-chloro-3,4-dihydro-3-(4-hydroxybutyl)-, 1,1-dioxide] | – | Urine collected in 6 hours (mL) (30 mg/kg) (Male Wistar rats; [1]): 6.0 ± 0.4 mL
14 | 136 to 139 °C (dec.) | NS(=O)(=O)c1cc2c(cc1Cl)NCN(Cc1cccc(CO[N+](=O)[O-])c1)S2(=O)=O [Example 33, 2H-1,2,4-Benzothiadiazine-7-sulfonamide, 6-chloro-3,4-dihydro-2-[[3-[(nitrooxy)methyl]phenyl]methyl]-, 1,1-dioxide] | 3.0 ± 0.4 mL | –

Row | SMILES | melting point | Urine collected in 6 hours (mL) (3 mg/kg) (Male Wistar rats; [3]) | further results
15 | NS(=O)(=O)c1cc2c(cc1Cl)NC(CNC(=O)CN(CCO[N+](=O)[O-])CCO[N+](=O)[O-])NS2(=O)=O (stereo not shown) [Example 57c, Acetamide, N-[[7-(aminosulfonyl)-6-chloro-3,4-dihydro-1,1-dioxido-2H-1,2,4-benzothiadiazin-3-yl]methyl]-2-[bis[2-(nitrooxy)ethyl]amino]-] | 118 °C (dec.) | – | Urine collected in 6 hours (mL) (3 mg/kg) (Male Wistar rats; rat, in vivo, po): 3.6 ± 0.6 mL
16 | NS(=O)(=O)c1cc2c(cc1C(F)(F)F)NC(CCC(CO[N+](=O)[O-])O[N+](=O)[O-])NS2(=O)=O (stereo not shown) [Example 7, 2H-1,2,4-benzothiadiazine-7-sulfonamide, 3-[3,4-bis(nitrooxy)butyl]-3,4-dihydro-6-(trifluoromethyl)-, 1,1-dioxide] | 157 to 160 °C (dec.) | – | Urine collected in 6 hours (mL) (30 mg/kg) (Male Wistar rats; rat, in vivo, po): 5.7 ± 0.4 mL
17 | CC(CO[N+](=O)[O-])(CO[N+](=O)[O-])C(=O)N1CCC2(CC1)Nc1cc(C(F)(F)F)c(S(N)(=O)=O)cc1S(=O)(=O)N2 [Example 16c, Spiro[2H-1,2,4-benzothiadiazine-3(4H), 4′-piperidine]-7-sulfonamide, 1′-[2-methyl-3-(nitrooxy)-2-[(nitrooxy)methyl]-1-oxopropyl]-6-(trifluoromethyl)-, 1,1-dioxide] | > 140 °C (dec.) | – | Urine collected in 6 hours (mL) (30 mg/kg) (Male Wistar rats; rat, in vivo, po): 4.3 ± 0.3 mL
18 | NS(=O)(=O)c1cc2c(cc1Cl)NC(CCCC(=O)NC[C@@H](CO[N+](=O)[O-])O[N+](=O)[O-])=NS2(=O)=O [Example 21b, 4H-1,2,4-Benzothiadiazine-3-butanamide, 7-(aminosulfonyl)-N-[(2S)-2,3-bis(nitrooxy)propyl]-6-chloro-, 1,1-dioxide] | 140 °C (dec.) | – | Urine collected in 6 hours (mL) (30 mg/kg) (Male Wistar rats; rat, in vivo, po): 2.7 ± 0.3 mL
19 | NS(=O)(=O)c1cc2c(cc1Cl)NCN(CCCCOc1cc(CO[N+](=O)[O-])cc(CO[N+](=O)[O-])c1)S2(=O)=O [Example 69b, 2H-1,2,4-Benzothiadiazine-7-sulfonamide, 2-[4-[3,5-bis[(nitrooxy)methyl]phenoxy]butyl]-6-chloro-3,4-dihydro-, 1,1-dioxide] | 65 to 67 °C | – | Urine collected in 6 hours (mL) (3 mg/kg) (Male Wistar rats; rat, in vivo, po): 2.5 ± 0.5 mL
20 | NS(=O)(=O)c1cc2c(cc1Cl)NCN(CCOc1cc(CO[N+](=O)[O-])cc(CO[N+](=O)[O-])c1)S2(=O)=O [Example 71c, 2H-1,2,4-Benzothiadiazine-7-sulfonamide, 2-[2-[3,5-bis[(nitrooxy)methyl]phenoxy]ethyl]-6-chloro-3,4-dihydro-, 1,1-dioxide] | 72 to 75 °C | – | Urine collected in 6 hours (mL) (3 mg/kg) (Male Wistar rats; rat, in vivo, po): 1.3 ± 0.6 mL
21 | CN(CC1Nc2cc(Cl)c(S(N)(=O)=O)cc2S(=O)(=O)N1)C(=O)c1cc(CO[N+](=O)[O-])cc(CO[N+](=O)[O-])c1 (stereo not shown) [Example 65d, (5-{[{[7-(Aminosulfonyl)-6-chloro-1,1-dioxido-3,4-dihydro-2H-1,2,4-benzothiadiazin-3-yl]methyl}(methyl)amino]carbonyl}-1,3-phenylene)bis(methylene)dinitrate] | 137 °C (dec.) | – | Urine collected in 6 hours (mL) (3 mg/kg) (Male Wistar rats; rat, in vivo, po): 4.6 ± 0.3 mL
22 | NS(=O)(=O)c1cc2c(cc1Cl)NC(CCCC(=O)NC[C@H](CO[N+](=O)[O-])O[N+](=O)[O-])=NS2(=O)=O [Example 11, 4H-1,2,4-Benzothiadiazine-3-butanamide, 7-(aminosulfonyl)-N-[(2R)-2,3-bis(nitrooxy)propyl]-6-chloro-, 1,1-dioxide] | > 220 °C | – | Urine collected in 6 hours (mL) (30 mg/kg) (Male Wistar rats; rat, in vivo, po): 3.7 ± 0.3 mL
23 | NS(=O)(=O)c1cc2c(cc1Cl)NCN(CC[C@@H](CO[N+](=O)[O-])O[N+](=O)[O-])S2(=O)=O [Example 48b, 2H-1,2,4-Benzothiadiazine-7-sulfonamide, 2-[(3S)-3,4-bis(nitrooxy)butyl]-6-chloro-3,4-dihydro-, 1,1-dioxide] | 162 to 163 °C | – | Urine collected in 6 hours (mL) (3 mg/kg) (Male Wistar rats; rat, in vivo, po): 4.8 ± 0.8 mL
